According to patent publication US20260048036A1, “CRYSTALLINE FORMS OF A GLUCOSYLCERAMIDE SYNTHASE INHIBITOR AND USES THEREOF” (ACELINK THERAPEUTICS, INC., priority 2022, published 2026):

Assay: Water activity study (Form A + Form C slurry)
Assay type: physicochemical
Conditions: ethanol/water mixtures, a.w. 0.2-1.0, 25° C. or 50° C., XRPD of wet cake
Method: Water activity experiments were conducted at 25° C. or 50° C. to determine critical water activity between anhydrate and hydrate. […] The mixtures were stirred at 25° C. or 50° C. for at least 2 days. The obtained solid part (wet cake) was investigated by XRPD.
The results of water activity study in different solvents at 25° C. and 50° C. are shown in Table 10 and Table 11, respectively. The water activity of a binary solvent system was calculated based on UNIFAC method (UNIQUAC Functional-group Activity Coefficients).

O=C(N[C@H](CN1CCCC1)[C@H](O)c1ccc(OC2CC2)c(Cl)c1)/C(=N/O)c1ccc2cc(Cl)ccc2c1 [Crystalline Form A of Compound 1]
form stability in water activity study: stable in a wide range of water activity
